As usually defined, the IC50 is the concentration at which inhibition is half-maximal.

The values that follow come from ChEMBL document CHEMBL5143695, “Benzobis(imidazole) derivatives as STAT3 signal inhibitors with antitumor activity” (Bioorg Med Chem, 2022).

Data set [1] is described as follows: Inhibition of IL-6/JAK/STAT3 signalling pathway in HEK-blue IL-6 cells incubated for 16 hrs by SEAP reporter gene based QUANTI- blue assay. It counts as cell-based. The conditions noted are these: Homo sapiens, HEK-Blue IL-6, 16 h. On the technique in general: Reporter assays use an easily measured gene product as a stand-in for the process of interest.
Data set [2] can be described thus: Cytotoxicity against HEK-Blue IL-6 cells. It counts as toxicity, cell-based. The conditions noted are these: human.
In data set [3] the test system is HepG2. Nature of the data set: Antitumor activity against human HepG2 cells assessed as reduction in cell viability incubated for 72 hrs by MTT assay. It counts as functional, cell-based. The conditions noted are these: HepG2, 72 h. In general terms: Formazan colour is commonly taken as a measure of viable cells.
For data set [4], the system named is ECa-109 cell line. Nature of the data set: Antitumor activity against human EC109 cells assessed as reduction in cell viability incubated for 72 hrs by MTT assay. Type of data set: functional, cell-based. The conditions noted are these: ECa-109, 72 h.
The subject of data set [5] is HepG2. Nature of the data set: Antitumor activity against human HepG2 cells xenografted in BALB/c athymic nude mouse assessed as tumor growth inhibition at 60 mg/kg, po administered daily for 24 days relative to control. Conditions: HepG2, 576 h, time 24 day, read-out: TGI. It counts as functional.
The nature of data set [6]: Toxicity in BALB/c athymic nude mouse xenografted with human HepG2 cells assessed as decrease in body weight at 60 mg/kg, po administered daily for 24 days. Type of data set: organism-based. Conditions: in vivo, 576 h, time 24 day.

Molecules are shown by their SMILES. Some results are limits rather than exact numbers.

As for `CCCn1c(C2CCOC2)nc2cc3nc(C4CCOC4)n(CCC)c3cc21` (stereo unspecified), the IC50 in data set [1] and in data set [2] was > 10 µM throughout.
Take `CCCn1c(-c2ccc(C(F)(F)F)cc2)nc2cc3nc(-c4ccc(C(F)(F)F)cc4)n(CCC)c3cc21`: the IC50 in data set [1] and in data set [2] was > 10 µM in each case.
Take `CCCn1c(-c2cccc(C(=O)OC)c2)nc2cc3nc(-c4cccc(C(=O)OC)c4)n(CCC)c3cc21`: the IC50 in data set [1] is 8.89 µM; in data set [2] it was > 10 µM.
The like results for `CCCn1c(-c2cccn2C)nc2cc3nc(-c4cccn4C)n(CCC)c3cc21` were, in that order, > 10 µM and > 10 µM.
The like results for `CCCn1c(C2CCC2)nc2cc3nc(C4CCC4)n(CCC)c3cc21` were, in that order, > 10 µM and > 10 µM.
The like results for `CCCn1c(C2CCOCC2)nc2cc3nc(C4CCOCC4)n(CCC)c3cc21` were, in that order, > 10 µM and > 10 µM.
`CCCn1c(-c2cccc(OC)c2)nc2cc3nc(-c4cccc(OC)c4)n(C4CCN(C)CC4)c3cc21`: the IC50 in data set [1] and in data set [2] was > 10 µM each time.
On to `CCCn1c(-c2cccc(C)c2)nc2cc3nc(-c4cccc(C)c4)n(CCC)c3cc21`, for which the IC50 in data set [1] is 2 µM; in data set [2] it was > 10 µM; in data set [3], 6.12 µM; in data set [4] it was > 20 µM.
The like results for `C[C@H]1COC2=C1C(=O)C(=O)c1c2ccc2c1CCCC2(C)C` [CRYPTOTANSHINONE] were, in that order, 6.61 µM, > 10 µM, 29.2 µM and 5.01 µM.
`CCCn1c(-c2cccc(Br)c2)nc2cc3nc(-c4cccc(Br)c4)n(CCC)c3cc21`: the IC50 in data set [1] and in data set [2] was > 10 µM each time.
On to `CCCn1c(-c2ccc3cc[nH]c3c2)nc2cc3nc(-c4ccc5cc[nH]c5c4)n(CCC)c3cc21`, for which the IC50 in data set [1] and in data set [2] was > 10 µM throughout.
With `CCCCn1c(-c2cccc(F)c2)nc2cc3nc(-c4cccc(F)c4)n(CCCC)c3cc21`, the IC50 in data set [1] was 7.85 µM; in data set [2], > 10 µM.
The like results for `CCCn1c(-c2nccs2)nc2cc3nc(-c4nccs4)n(CCC)c3cc21` were, in that order, > 10 µM and > 10 µM.
In the case of `CCCn1c(-c2cncnc2)nc2cc3nc(-c4cncnc4)n(CCC)c3cc21`, the IC50 in data set [1] and in data set [2] was > 10 µM throughout.
With `CCCn1c(-c2cc(C(C)(C)C)cc(C(C)(C)C)c2)nc2cc3nc(-c4cc(C(C)(C)C)cc(C(C)(C)C)c4)n(CCC)c3cc21`, the 50% inhibitory concentration (IC50) in data set [1] and in data set [2] was > 10 µM throughout.
For the molecule `CCCn1c(-c2cc(OC)cc(OC)c2)nc2cc3nc(-c4cc(OC)cc(OC)c4)n(CCC)c3cc21`, the IC50 in data set [1] and in data set [2] was > 10 µM throughout.
Consider `CCCn1c(-c2cccc(OCC)c2)nc2cc3nc(-c4cccc(OCC)c4)n(CCC)c3cc21`, for which the half-inhibitory concentration (IC50) in data set [1] and in data set [2] was > 10 µM each time.
`CCCn1c(-c2cccc(Cl)c2)nc2cc3nc(-c4cccc(Cl)c4)n(CCC)c3cc21`: the IC50 was 2.89 µM in data set [1], > 10 µM in data set [2], 17.9 µM in data set [3] and > 20 µM in data set [4].
With `CCCn1c(-c2cccc(O)c2)nc2cc3nc(-c4cccc(O)c4)n(CCC)c3cc21`, the values for the IC50 in data set [1] and in data set [2] were 10.2 µM and > 10 µM, respectively.
As to `CCCn1c(-c2scc3ccccc23)nc2cc3nc(-c4scc5ccccc45)n(CCC)c3cc21`, the IC50 in data set [1] and in data set [2] was > 10 µM in each case.
Take `CCCn1c(-c2ccccc2)nc2cc3nc(-c4ccccc4)n(CCN(C)C)c3cc21`: the IC50 in data set [1] and in data set [2] was > 10 µM in each case.
Consider `CCCn1c(-c2cccc3ccccc23)nc2cc3nc(-c4cccc5ccccc45)n(CCC)c3cc21`, for which the results for the IC50 in data set [1] and in data set [2] were 9.5 µM and > 10 µM, respectively.
The like results for `CCCn1c(-c2ccccc2F)nc2cc3nc(-c4ccccc4F)n(CCC)c3cc21` were, in that order, 10.3 µM and > 10 µM.
For the molecule `CCCn1c(-c2ccc(Cl)c(C(F)(F)F)c2)nc2cc3nc(-c4ccc(Cl)c(C(F)(F)F)c4)n(CCC)c3cc21`, the IC50 in data set [1] and in data set [2] was > 10 µM throughout.
With `CCCn1c(-c2cccc(OC)c2)nc2cc3nc(-c4cccc(OC)c4)n(CCN(C)C)c3cc21`, the IC50 in data set [1] and in data set [2] was > 10 µM in each case.
Take `CC(C)Cn1c(-c2cccc(F)c2)nc2cc3nc(-c4cccc(F)c4)n(CC(C)C)c3cc21`: the IC50 in data set [1] and in data set [2] was > 10 µM throughout.
With `CCCn1c(-c2cc(OC)c(OC)c(OC)c2)nc2cc3nc(-c4cc(OC)c(OC)c(OC)c4)n(CCC)c3cc21`, the IC50 in data set [1] and in data set [2] was > 10 µM throughout.
Consider `CCCn1c(-c2cccc(C(F)(F)F)c2)nc2cc3nc(-c4cccc(C(F)(F)F)c4)n(CCC)c3cc21`, for which the IC50 was 1.24 µM in data set [1], > 10 µM in data set [2], > 20 µM in data set [3] and > 20 µM in data set [4].
For the molecule `Fc1cccc(-c2nc3cc4nc(-c5cccc(F)c5)n(C5CC5)c4cc3n2C2CC2)c1`, the IC50 in data set [1] and in data set [2] was > 10 µM throughout.
Take `CCCn1c(-c2ccccc2)nc2cc3nc(-c4ccccc4)n(CCC)c3cc21`: the IC50 is 7.21 µM in data set [1], > 10 µM in data set [2], 13.2 µM in data set [3] and 12.6 µM in data set [4].
For `CCCn1c(-c2cc(F)cc(F)c2)nc2cc3nc(-c4cc(F)cc(F)c4)n(CCC)c3cc21`, the IC50 in data set [1] and in data set [2] was > 10 µM each time.
On to `CCCn1c(-c2ccc(C)nc2)nc2cc3nc(-c4ccc(C)nc4)n(CCC)c3cc21`, for which the IC50 in data set [1] and in data set [2] was > 10 µM throughout.
`CCCn1c(-c2cccc(C#N)c2)nc2cc3nc(-c4cccc(C#N)c4)n(CCC)c3cc21`: the IC50 in data set [1] was 6.7 µM; in data set [2] it was > 10 µM.
As to `CCCn1c(-c2ccc(F)c(C(F)(F)F)c2)nc2cc3nc(-c4ccc(F)c(C(F)(F)F)c4)n(CCC)c3cc21`, the IC50 in data set [1] and in data set [2] was > 10 µM throughout.
With `CCn1c(-c2cccc(F)c2)nc2cc3nc(-c4cccc(F)c4)n(CC)c3cc21`, the IC50 in data set [1] and in data set [2] was > 10 µM each time.
Regarding `CNC(=O)c1cc(Oc2ccc(NC(=O)Nc3ccc(Cl)c(C(F)(F)F)c3)cc2)ccn1` [SORAFENIB], the inhibition in vivo at 60 mg/kg in data set [5] was 88.4%. Further, in data set [6], the Activity result was “Toxic”.
As for `CCCn1c(C2CC2)nc2cc3nc(C4CC4)n(CCC)c3cc21`, the IC50 in data set [1] and in data set [2] was > 10 µM throughout.
For the molecule `CCCn1c(-c2cccc(F)c2)nc2cc3nc(-c4cccc(F)c4)n(CCC)c3cc21`, the IC50 is 1.5 µM in data set [1], > 10 µM in data set [2], > 20 µM in data set [3] and > 20 µM in data set [4].
With `CCCn1c(-c2ccc(C)o2)nc2cc3nc(-c4ccc(C)o4)n(CCC)c3cc21`, the 50% inhibitory concentration (IC50) in data set [1] and in data set [2] was > 10 µM in each case.
On to `CCCn1c(-c2ccc(F)cc2)nc2cc3nc(-c4ccc(F)cc4)n(CCC)c3cc21`, for which the 50% inhibitory concentration (IC50) in data set [1] and in data set [2] was > 10 µM throughout.
Take `CCCn1c(C2CCCCC2)nc2cc3nc(C4CCCCC4)n(CCC)c3cc21`: the IC50 is 8.11 µM in data set [1] and > 10 µM in data set [2].
In the case of `CCCn1c(-c2ccc[nH]2)nc2cc3nc(-c4ccc[nH]4)n(CCC)c3cc21`, the IC50 in data set [1] and in data set [2] was > 10 µM each time.
